Test results from patent publication US20150223456A1, “PESTICIDAL COMPOUNDS” (SYNGENTA PARTICIPATIONS AG, priority 2011, published 2015).

melting point: 206 to 207 °C
Compound: O=C(NCC1(c2ccc(Cl)nc2Cl)CC1)c1cccnc1Cl [A.122, 2-Chloro-N-[1-(2,6-dichloro-pyridin-3-yl)-cyclopropylmethyl]nicotinamide]
